Like-named read-outs stand apart in the source and are kept apart here.
Columns and labels:
human CB1R = human CB1R (Homo sapiens, UniProt P21554); assay: In vitro CB receptor affinity assay, displacement of [3H]CP55,940, CHO cells transfected with human CB1R; format: binding; conditions: [3H]CP55,940 displacement, hCB1R CHO cells; read-out: Ki CB1R
Experimental: (§1) For binding experiments, Chinese hamster ovary (CHO) cell lines stably transfected with human CB1R human and CB2R were used according to the procedures previously described. […] The binding experiments were performed in triplicates, and data were given as mean values from independent experiments.

human CB2R = human CB2R (Homo sapiens, UniProt P34972); assay: In vitro CB receptor affinity assay, displacement of [3H]CP55,940, CHO cells transfected with human CB2R; format: binding
Experimental: as §1

[1] = HPLC-based logD determination; format: physicochemical; conditions: RP-HPLC, reference compounds, n = 3 to 6
Experimental: The distribution coefficients of [^18F]1 and [^18F]2 were also calculated from RP-HPLC retention times in three different systems: (1) isocratic elution (60% MeCN/20 mM NH4OAc at a flow rate of 1 mL/min) and (2) gradient elution (starting from 10% MeCN/20 mM NH4OAc aq. for 10 min with a gradient to 90% MeCN/20 mM NH4OAc aq. over 30 min at a flow rate of 1 mL/min) on a Reprosil-Pur C18-AQ column (5 μm, 250 × 4.6 mm, Dr. Maisch HPLC GmbH, Ammerbruch-Entringen, Germany), and (3) isocratic elution (52.5% MeCN/20 mM NH4OAc at a flow rate of 1 mL/min) on a Prodigy 5 μm C8 (250 × 4 mm; Phenomenex Ltd, Aschaffenburg, Germany) using the reference compounds following the protocol according to the EU guideline 67/548/EWG [44].

human CB2R, sequence (P34972 whole entry): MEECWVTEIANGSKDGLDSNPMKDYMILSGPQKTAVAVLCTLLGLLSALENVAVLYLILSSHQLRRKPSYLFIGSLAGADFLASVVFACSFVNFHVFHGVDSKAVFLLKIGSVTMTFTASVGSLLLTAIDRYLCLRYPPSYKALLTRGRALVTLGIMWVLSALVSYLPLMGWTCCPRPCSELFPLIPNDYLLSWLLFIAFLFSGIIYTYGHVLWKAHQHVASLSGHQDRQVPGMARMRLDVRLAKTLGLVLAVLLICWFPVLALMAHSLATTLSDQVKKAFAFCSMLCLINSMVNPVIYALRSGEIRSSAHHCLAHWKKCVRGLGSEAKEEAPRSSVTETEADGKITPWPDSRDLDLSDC
human CB1R, sequence (P21554 whole entry): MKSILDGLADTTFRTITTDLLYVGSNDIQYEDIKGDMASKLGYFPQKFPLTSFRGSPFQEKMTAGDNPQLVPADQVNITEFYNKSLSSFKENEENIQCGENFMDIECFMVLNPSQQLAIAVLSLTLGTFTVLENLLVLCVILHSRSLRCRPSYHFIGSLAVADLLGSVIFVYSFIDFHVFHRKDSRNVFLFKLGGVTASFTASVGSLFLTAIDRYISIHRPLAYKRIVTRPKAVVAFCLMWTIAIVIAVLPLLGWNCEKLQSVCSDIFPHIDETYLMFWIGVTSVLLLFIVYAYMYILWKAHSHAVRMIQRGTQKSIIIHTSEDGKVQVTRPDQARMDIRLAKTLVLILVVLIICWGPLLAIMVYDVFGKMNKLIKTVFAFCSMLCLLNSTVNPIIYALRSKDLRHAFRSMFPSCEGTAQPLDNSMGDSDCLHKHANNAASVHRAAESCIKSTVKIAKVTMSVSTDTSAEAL

Row | Structure (SMILES) | melting point [°C] | Ki (human CB1R) [µM] | Ki (human CB2R; [3H]CP55,940 displacement, hCB2R CHO cells, read-out: Ki CB2R) [µM] | chromatographic logD ([1]; gradient 10% to 90% MeCN/20 mM NH4OAc, read-out: logD Reposil-Pur C18-AQ Gradient) | chromatographic logD ([1]; isocratic 52.5% MeCN/20 mM NH4OAc, read-out: logD Prodigy 5 μ C8 Isocratic) | chromatographic logD ([1]; isocratic 60% MeCN/20 mM NH4OAc, read-out: logD Reposil-Pur C18-AQ Isocratic) | Ki (human CB2R) [µM]
1 | O=C(O)CCc1nc(-c2ccc(F)cc2Br)no1 [Compound 10, 3-(3-(2-Bromo-4-fluorophenyl)-1,2,4-oxadiazol-5-yl)propanoic acid] | 104 | > 1 | > 1 |  |  |  | 
2 | CCn1c2ccccc2c2cc(NC(=O)CCc3nc(-c4ccc(F)cc4Br)no3)ccc21 [Compound 2, 3-[3-(2-Bromo-4-fluorophenyl)-1,2,4-oxadiazol-5-yl]-N-(9-ethyl-9H-carbazol-3-yl)propanamide] |  | > 1 |  | 4.35 ± 0.11 | 4.4 ± 0.35 | 4.87 ± 0.36 | 0.00427 ± 0.00303
